Data on seven molecules can be found in ChEMBL document CHEMBL4813952, “Axial Chiral Binaphthoquinone and Perylenequinones from the Stromata of Hypocrella bambusae Are SARS-CoV-2 Entry Inhibitors” (J Nat Prod, 2021).

Calls of active or inactive are those of the source. The calls are words filed in the database; no cut-off is given here.

A short description of data set [1]: Cytotoxicity against human 293T/ACE2 cells measured after 48 hrs by CCK8 assay. It counts as cell-based. For orientation: Tetrazolium dyes change colour on reduction, which living cells bring about.
The target of data set [2] is Spike glycoprotein (Severe acute respiratory syndrome coronavirus 2) (UniProt P0DTC2). As to the kind of experiment: Inhibition of spike glycoprotein S in SARS-CoV-2 pseudovirus infected in human 293T/ACE2 cells assessed as inhibition of viral infection. It counts as cell-based.
In a further data set the target is Spike glycoprotein (Severe acute respiratory syndrome coronavirus 2, UniProt P0DTC2). As to the kind of experiment: Binding affinity to SARS-CoV-2 spike glycoprotein S RBD at 25 degreeC by surface plasmon resonance assay. (In SPR one partner is held on a chip, and binding of the other changes the refractive index at the surface.)
The subject of data set [3] is SARS-CoV-2. Nature of the data set: Antiviral activity against SARS-CoV-2 Wuhan-HU-1 infected in African green monkey Vero E6 cells assessed as inhibition of viral infection when cells were preincubated for 1 hr followed by viral infection measured after 24 hrs by qPCR analysis. It counts as functional, organism-based. To be noted: Severe acute respiratory syndrome coronavirus 2, Wuhan-HU-1, Vero C1008.

A further data set relates to Vero C1008. Nature of the data set: Cytotoxicity against African Green monkey Vero E6 cells at 10 uM measured after 24 to 48 hrs by CCK8 assay. The data set is classed as cell-based. Particulars: chlorocebus sabaeus, vero c1008, 10 µM, time 24-48 hrs.
The subject of data set [4] is SARS-CoV-2. As to the kind of experiment: Antiviral activity against SARS-CoV-2 Wuhan-HU-1 infection on African green monkey Vero E6 cells assessed by drecrease in viral nucleocapsid N-protein expression measured after 48 hrs by DAPI staining based immunofluorescence microscopy. Particulars: Severe acute respiratory syndrome coronavirus 2, dose 0.08-2.2 µM. It counts as functional, organism-based.

In data set [5] the target is Spike glycoprotein (Severe acute respiratory syndrome coronavirus 2) (UniProt P0DTC2). Nature of the data set: Inhibition of SARS-CoV-2 spike glycoprotein S expressed in human HEK293T cells cotransfected with pAAV-IRES-GFP assessed as inhibition of membrane fusion to African green monkey Vero E6 cells causing suppression of syncytium formation at 2 uM preincubated for 30 mins measured after 24 hrs by cell-cell fusion based fluorescence microscopy. To be noted: time 24.5 hrs.

The test system of data set [6] is SARS-CoV-2. As to the kind of experiment: Antiviral activity against SARS-CoV-2 Wuhan-HU-1 infection on African green monkey Vero E6 cells assessed by drecrease in viral nucleocapsid N-protein expression at 20 uM measured after 48 hrs by DAPI staining based immunofluorescence microscopy. The data set is classed as functional, organism-based. To be noted: Severe acute respiratory syndrome coronavirus 2.

Consider `COc1c2c3c4c(c(OC)c(=O)c5c(O)cc(OC)c(c6c(OC)cc(O)c(c1=O)c63)c54)[C@@H](C(C)=O)[C@@](C)(O)C2` [HYPOCRELLIN A], for which the CC50 (commonly the concentration at which the toxic effect on the cells reaches its halfway point) at 48 h in data set [1] was 2 µM. Besides, the inhibition result in data set [2] and in data set [5] was “inactive” in each case. For the same molecule, at Spike glycoprotein, the Kd – broadly, the free concentration of one partner at which half of the binding sites on the other are occupied at equilibrium, for simple one-to-one binding – was found to be 0.0379 µM. Moreover, in the data set on SARS-CoV-2 [3], the EC50 (usually the concentration giving half of the maximal effect) was 0.22 µM. In addition, the results for the Activity entry in the data set on Vero C1008 and in the data set on SARS-CoV-2 [4] were “Non-Toxic” and “Dose-Dependent Effect”, respectively.
With `COC1=C2c3c4c5c(c(O)cc(OC)c5c5c(OC)cc(O)c(c35)C1=O)C(=O)[C@@H](OC)[C@@]41C[C@](C)(O)[C@@H]2[C@@]1(C)O`, the cytotoxic concentration (CC50) at 48 h in data set [1] is above 10 µM. The inhibition result in data set [2] is “inactive”.
In turn, `COC1=CC(=O)c2c(O)c(OC)c3c(c2C1=O)-c1c(c(OC)c(O)c2c1C(=O)C(OC)=CC2O)C[C@](C)(O)[C@@H]3C(C)=O` (stereo not given in full) had a 50% cytotoxic concentration (CC50) at 48 h in data set [1] above 10 µM. The inhibition result in data set [2] is “inactive”.
In turn, `COC1=C(CC(C)=O)C(=O)c2c(c(O)cc(OC)c2-c2c(OC)cc(O)c3c2C(=O)C(CC(C)=O)=C(OC)C3=O)C1=O` registered a CC50 at 48 h in data set [1] above 10 µM. In addition, in data set [2], the inhibition result was “inactive”. Moreover, the outcome in the data set with SARS-CoV-2 [6] was inactive.
In the case of `COc1c2c3c4c(c(OC)c(=O)c5c(O)cc(OC)c(c6c(OC)ccc(c1=O)c63)c54)CC(C)=C2C(C)=O`, the CC50 at 48 h in data set [1] was above 10 µM. The inhibition entry in data set [2] is “inactive”.
The molecule `COc1c(O)c2c(=O)cc(OC)c3c4c(OC)cc(=O)c5c(O)c(OC)c6c(c(c1C[C@](C)(O)[C@H]6C(C)=O)c23)c54` came in with a cytotoxic concentration (CC50) at 48 h in data set [1] of 2.5 µM. Besides, the inhibition result in data set [2] and in data set [5] was “inactive” each time. Further, the Kd on Spike glycoprotein is 0.0228 µM. In addition, the EC50 with SARS-CoV-2 [3] was 0.21 µM. Also, the Activity result with Vero C1008 is “Non-Toxic”; in the data set on SARS-CoV-2 [4], “Dose-Dependent Effect”.
`COC1=C2c3c4c5c(c(O)cc(OC)c5c5c(OC)cc(O)c(c35)C1=O)C(=O)[C@@H](OC)[C@@]41C[C@](C)(O)[C@@H]2[C@]1(C)O`: the 50% cytotoxic concentration (CC50) at 48 h in data set [1] is above 10 µM. In data set [2], the inhibition result was “inactive”.
